According to ChEMBL document CHEMBL3991601, “The target landscape of clinical kinase drugs” (Science, 2017):
Active and inactive are the calls of the source. For most assays here, no stated cut-off is given here; in the data, actives have a measured Kd and inactives only a lower limit.

Experiments:
[1] = biological target: T1, Bifunctional phosphoribosylaminoimidazole carboxylase/phosphoribosylaminoimidazole succinocarboxamide synthetase (Homo sapiens, UniProt P22234)
T1 sequence (P22234 whole entry): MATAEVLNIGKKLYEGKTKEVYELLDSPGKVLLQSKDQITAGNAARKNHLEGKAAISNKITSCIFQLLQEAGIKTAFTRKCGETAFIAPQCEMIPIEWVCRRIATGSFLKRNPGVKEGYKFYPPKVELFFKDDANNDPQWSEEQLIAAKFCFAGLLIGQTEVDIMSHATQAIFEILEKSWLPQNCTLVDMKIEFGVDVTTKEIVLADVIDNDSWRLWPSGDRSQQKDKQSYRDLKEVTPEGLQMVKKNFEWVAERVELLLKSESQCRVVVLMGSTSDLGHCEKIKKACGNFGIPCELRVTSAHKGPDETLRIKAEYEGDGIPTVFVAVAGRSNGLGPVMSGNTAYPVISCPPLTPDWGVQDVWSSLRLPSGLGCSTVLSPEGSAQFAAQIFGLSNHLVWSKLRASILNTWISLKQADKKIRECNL

[2] = biological target: T2, Bone morphogenetic protein receptor type-2 (Homo sapiens, UniProt Q13873)
T2 sequence (Q13873 whole entry): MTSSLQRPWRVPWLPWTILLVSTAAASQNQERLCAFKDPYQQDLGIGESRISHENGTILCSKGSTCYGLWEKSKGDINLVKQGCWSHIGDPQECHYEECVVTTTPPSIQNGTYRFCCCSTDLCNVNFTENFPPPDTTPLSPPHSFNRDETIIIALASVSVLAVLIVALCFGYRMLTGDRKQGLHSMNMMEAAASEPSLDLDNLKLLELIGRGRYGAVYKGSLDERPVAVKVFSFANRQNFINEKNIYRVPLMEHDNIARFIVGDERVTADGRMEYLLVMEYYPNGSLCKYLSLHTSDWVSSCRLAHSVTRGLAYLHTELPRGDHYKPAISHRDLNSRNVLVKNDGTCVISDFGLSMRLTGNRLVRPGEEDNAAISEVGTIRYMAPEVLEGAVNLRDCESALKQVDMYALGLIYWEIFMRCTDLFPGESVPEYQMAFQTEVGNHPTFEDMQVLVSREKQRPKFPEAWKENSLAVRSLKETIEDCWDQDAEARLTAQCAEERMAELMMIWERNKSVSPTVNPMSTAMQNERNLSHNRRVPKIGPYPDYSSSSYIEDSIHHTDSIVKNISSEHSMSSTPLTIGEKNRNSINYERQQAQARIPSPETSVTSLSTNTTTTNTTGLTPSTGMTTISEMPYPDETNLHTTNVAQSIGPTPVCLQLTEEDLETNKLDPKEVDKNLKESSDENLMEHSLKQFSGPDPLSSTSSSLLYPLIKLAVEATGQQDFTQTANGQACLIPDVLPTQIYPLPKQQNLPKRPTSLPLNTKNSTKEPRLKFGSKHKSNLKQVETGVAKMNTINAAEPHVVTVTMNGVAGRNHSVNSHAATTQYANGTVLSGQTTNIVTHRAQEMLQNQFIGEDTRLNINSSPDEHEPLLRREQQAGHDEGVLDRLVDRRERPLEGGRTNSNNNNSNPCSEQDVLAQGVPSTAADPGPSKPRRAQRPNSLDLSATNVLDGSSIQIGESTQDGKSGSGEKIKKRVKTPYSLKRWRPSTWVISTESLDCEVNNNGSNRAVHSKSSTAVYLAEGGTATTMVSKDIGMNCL

[3] = biological target: T3, Electron transfer flavoprotein subunit beta (Homo sapiens, UniProt P38117)
T3 sequence (P38117 whole entry): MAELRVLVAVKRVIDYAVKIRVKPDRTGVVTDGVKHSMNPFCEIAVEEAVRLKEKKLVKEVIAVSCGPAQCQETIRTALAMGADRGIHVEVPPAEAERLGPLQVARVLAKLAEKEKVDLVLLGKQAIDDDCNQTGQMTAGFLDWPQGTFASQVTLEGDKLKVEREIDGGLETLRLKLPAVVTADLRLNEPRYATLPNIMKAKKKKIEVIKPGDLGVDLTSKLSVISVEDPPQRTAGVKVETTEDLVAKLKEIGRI

dCTP pyrophosphatase 1 = biological target: T4, dCTP pyrophosphatase 1 (Homo sapiens, UniProt Q9H773)
T4 sequence (Q9H773 whole entry): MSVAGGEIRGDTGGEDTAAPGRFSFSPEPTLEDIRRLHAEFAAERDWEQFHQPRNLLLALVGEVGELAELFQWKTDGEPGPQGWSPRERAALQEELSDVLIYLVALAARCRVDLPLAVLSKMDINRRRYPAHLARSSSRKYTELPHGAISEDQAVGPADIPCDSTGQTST

[4] = biological target: Casein kinase I isoform epsilon (Homo sapiens, UniProt P49674)
[5] = biological target: Dual specificity tyrosine-phosphorylation-regulated kinase 1A (Homo sapiens, UniProt Q13627)
[6] = biological target: Protein kinase C beta type (Homo sapiens, UniProt P05771)
[7] = biological target: Casein kinase II subunit alpha' (Homo sapiens, UniProt P19784)
[8] = biological target: T5, Serine/threonine-protein kinase NLK (Homo sapiens, UniProt Q9UBE8)
T5 sequence (Q9UBE8 whole entry): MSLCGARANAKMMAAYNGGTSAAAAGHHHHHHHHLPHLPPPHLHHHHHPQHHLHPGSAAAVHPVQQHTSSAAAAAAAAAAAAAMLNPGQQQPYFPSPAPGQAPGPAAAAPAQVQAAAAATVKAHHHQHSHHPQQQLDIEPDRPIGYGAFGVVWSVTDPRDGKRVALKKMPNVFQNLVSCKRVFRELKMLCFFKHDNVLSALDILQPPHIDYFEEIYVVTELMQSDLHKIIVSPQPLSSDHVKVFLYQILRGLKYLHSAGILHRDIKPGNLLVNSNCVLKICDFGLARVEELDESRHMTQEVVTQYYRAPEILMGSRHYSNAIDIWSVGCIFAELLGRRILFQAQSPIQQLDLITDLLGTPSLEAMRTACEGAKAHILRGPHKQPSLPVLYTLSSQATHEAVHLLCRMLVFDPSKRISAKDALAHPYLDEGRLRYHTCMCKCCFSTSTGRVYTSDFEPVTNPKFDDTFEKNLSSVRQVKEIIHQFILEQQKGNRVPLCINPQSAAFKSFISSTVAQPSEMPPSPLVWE

[9] = biological target: Serine/threonine-protein kinase/endoribonuclease IRE1 (Homo sapiens, UniProt O75460)
Sequence of Serine/threonine-protein kinase/endoribonuclease IRE1 (O75460 whole entry): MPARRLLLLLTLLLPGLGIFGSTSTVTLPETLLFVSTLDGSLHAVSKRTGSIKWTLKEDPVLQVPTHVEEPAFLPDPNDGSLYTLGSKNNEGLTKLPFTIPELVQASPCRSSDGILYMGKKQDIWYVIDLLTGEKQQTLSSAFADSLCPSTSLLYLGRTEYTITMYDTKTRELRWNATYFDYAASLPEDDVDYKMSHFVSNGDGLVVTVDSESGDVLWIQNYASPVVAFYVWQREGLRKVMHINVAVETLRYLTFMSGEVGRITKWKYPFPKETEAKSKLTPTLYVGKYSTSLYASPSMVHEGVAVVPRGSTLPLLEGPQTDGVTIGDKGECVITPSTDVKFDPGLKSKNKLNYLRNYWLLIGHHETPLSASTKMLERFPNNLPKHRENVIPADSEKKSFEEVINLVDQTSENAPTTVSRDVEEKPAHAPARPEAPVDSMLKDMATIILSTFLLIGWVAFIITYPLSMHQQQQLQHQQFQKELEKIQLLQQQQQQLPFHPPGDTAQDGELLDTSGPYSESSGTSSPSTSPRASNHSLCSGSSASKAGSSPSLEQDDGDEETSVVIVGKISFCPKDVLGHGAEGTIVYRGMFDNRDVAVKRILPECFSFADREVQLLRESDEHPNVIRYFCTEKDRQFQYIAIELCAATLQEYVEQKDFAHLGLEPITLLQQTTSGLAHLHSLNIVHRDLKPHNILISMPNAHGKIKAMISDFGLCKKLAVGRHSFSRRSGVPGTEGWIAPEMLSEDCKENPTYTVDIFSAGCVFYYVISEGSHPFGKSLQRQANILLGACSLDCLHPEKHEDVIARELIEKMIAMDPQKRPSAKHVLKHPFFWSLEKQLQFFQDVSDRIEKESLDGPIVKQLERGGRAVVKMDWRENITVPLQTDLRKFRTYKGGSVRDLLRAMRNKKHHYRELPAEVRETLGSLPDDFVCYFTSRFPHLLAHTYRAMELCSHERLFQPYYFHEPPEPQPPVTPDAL

Sequence of Protein kinase C beta type (P05771 whole entry): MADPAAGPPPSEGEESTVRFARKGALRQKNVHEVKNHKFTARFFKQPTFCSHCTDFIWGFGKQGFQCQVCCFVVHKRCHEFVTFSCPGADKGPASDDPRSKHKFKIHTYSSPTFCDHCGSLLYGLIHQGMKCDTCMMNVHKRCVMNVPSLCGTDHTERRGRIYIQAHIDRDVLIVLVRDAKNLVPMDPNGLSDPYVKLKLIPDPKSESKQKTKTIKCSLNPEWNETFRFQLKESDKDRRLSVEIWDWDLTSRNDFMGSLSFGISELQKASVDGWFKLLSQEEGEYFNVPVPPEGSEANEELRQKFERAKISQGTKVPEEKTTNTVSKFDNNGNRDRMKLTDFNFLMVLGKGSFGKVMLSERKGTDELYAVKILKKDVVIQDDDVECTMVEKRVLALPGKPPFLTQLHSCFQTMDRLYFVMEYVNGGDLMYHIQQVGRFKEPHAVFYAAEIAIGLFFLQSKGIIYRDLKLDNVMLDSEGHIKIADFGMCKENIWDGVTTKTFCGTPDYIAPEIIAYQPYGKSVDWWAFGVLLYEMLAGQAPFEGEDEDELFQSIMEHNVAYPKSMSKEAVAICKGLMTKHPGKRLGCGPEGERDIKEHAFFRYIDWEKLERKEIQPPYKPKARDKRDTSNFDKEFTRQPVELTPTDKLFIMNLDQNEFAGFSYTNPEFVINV
Sequence of Casein kinase II subunit alpha' (P19784 whole entry): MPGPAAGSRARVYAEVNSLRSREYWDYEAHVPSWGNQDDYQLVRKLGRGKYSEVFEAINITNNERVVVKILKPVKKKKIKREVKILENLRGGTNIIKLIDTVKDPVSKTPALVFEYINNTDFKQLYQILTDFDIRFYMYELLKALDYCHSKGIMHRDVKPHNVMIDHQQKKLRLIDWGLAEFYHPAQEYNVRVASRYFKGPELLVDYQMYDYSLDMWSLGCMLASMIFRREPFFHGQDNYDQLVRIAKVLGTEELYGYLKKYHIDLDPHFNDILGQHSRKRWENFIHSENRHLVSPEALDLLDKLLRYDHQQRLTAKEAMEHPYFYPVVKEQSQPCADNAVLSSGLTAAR
Sequence of Casein kinase I isoform epsilon (P49674 whole entry, canonical isoform): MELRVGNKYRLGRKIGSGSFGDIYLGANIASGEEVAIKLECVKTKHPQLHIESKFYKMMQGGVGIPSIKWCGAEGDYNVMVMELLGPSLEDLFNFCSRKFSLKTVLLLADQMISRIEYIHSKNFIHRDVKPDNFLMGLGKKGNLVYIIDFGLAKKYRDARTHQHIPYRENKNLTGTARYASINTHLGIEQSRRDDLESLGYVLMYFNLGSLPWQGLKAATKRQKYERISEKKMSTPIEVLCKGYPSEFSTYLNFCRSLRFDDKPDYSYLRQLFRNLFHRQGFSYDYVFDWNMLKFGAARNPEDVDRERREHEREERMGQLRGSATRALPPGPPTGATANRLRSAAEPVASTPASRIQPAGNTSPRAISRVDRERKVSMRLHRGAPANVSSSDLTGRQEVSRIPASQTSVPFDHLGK

Row | Compound | Kd [1] | Kd [2] | Kd [3] | Kd (dCTP pyrophosphatase 1) | Kd [4] | Kd [5] | Kd [6] | Kd [7] | Kd [8] | Kd [9]
1 | CNS(=O)(=O)Nc1nccc(Cc2c(C)c3ccc(Oc4ncccn4)cc3oc2=O)c1F [AVUTOMETINIB] | > 30 µM (inactive) | > 30 µM (inactive) | > 30 µM (inactive) | > 30 µM (inactive) | > 30 µM (inactive) | > 30 µM (inactive) | > 30 µM (inactive) | > 30 µM (inactive) | > 30 µM (inactive) | > 30 µM (inactive)
2 | Cc1ccc(NC(=O)c2ccc(CN3CC[C@H](N(C)C)C3)c(C(F)(F)F)c2)cc1Nc1nccc(-c2cncnc2)n1 [BAFETINIB] | > 30 µM (inactive) | > 30 µM (inactive) | > 30 µM (inactive) | > 30 µM (inactive) | > 30 µM (inactive) | > 30 µM (inactive) | > 30 µM (inactive) | > 30 µM (inactive) | > 30 µM (inactive) | > 30 µM (inactive)
3 | CCS(=O)(=O)N1CC(CC#N)(n2cc(-c3ncnc4[nH]ccc34)cn2)C1 [BARICITINIB] | > 30 µM (inactive) | > 30 µM (inactive) | > 30 µM (inactive) | > 30 µM (inactive) | > 30 µM (inactive) | > 30 µM (inactive) | 26.3 µM (active) | > 30 µM (inactive) | > 30 µM (inactive) | > 30 µM (inactive)
4 | Cc1cc2c(F)c(Oc3ncnn4cc(OC[C@@H](C)OC(=O)[C@H](C)N)c(C)c34)ccc2[nH]1 [BRIVANIB ALANINATE] | > 30 µM (inactive) | > 30 µM (inactive) | > 30 µM (inactive) | > 30 µM (inactive) | > 30 µM (inactive) | > 30 µM (inactive) | > 30 µM (inactive) | > 30 µM (inactive) | > 30 µM (inactive) | > 30 µM (inactive)
5 | CNC(=O)c1ccc(-c2cnc3ncc(Cc4ccc5ncccc5c4)n3n2)cc1F [CAPMATINIB] | > 30 µM (inactive) | > 30 µM (inactive) | > 30 µM (inactive) | > 30 µM (inactive) | > 30 µM (inactive) | > 30 µM (inactive) | > 30 µM (inactive) | > 30 µM (inactive) | > 30 µM (inactive) | > 30 µM (inactive)
6 | O=C(c1ccc(F)c(F)c1Nc1ccc(I)cc1F)N1CC(O)([C@@H]2CCCCN2)C1 [COBIMETINIB] | > 30 µM (inactive) | > 30 µM (inactive) | > 30 µM (inactive) | > 30 µM (inactive) | > 30 µM (inactive) | > 30 µM (inactive) | > 30 µM (inactive) | > 30 µM (inactive) | > 30 µM (inactive) | > 30 µM (inactive)
7 | COC(=O)N[C@@H](C)CNc1nccc(-c2cn(C(C)C)nc2-c2cc(Cl)cc(NS(C)(=O)=O)c2F)n1 [ENCORAFENIB] | > 30 µM (inactive) | > 30 µM (inactive) | > 30 µM (inactive) | > 30 µM (inactive) | > 30 µM (inactive) | > 30 µM (inactive) | > 30 µM (inactive) | > 30 µM (inactive) | 0.732 µM (active) | > 30 µM (inactive)
8 | CO[C@H]1C[C@@H]2CC[C@@H](C)[C@@](O)(O2)C(=O)C(=O)N2CCCC[C@H]2C(=O)O[C@H]([C@H](C)C[C@@H]2CC[C@@H](OCCO)[C@H](OC)C2)CC(=O)[C@H](C)/C=C(\C)[C@@H](O)[C@@H](OC)C(=O)[C@H](C)C[C@H](C)/C=C/C=C/C=C/1C [EVEROLIMUS] | > 30 µM (inactive) | > 30 µM (inactive) | > 30 µM (inactive) | > 30 µM (inactive) | > 30 µM (inactive) | > 30 µM (inactive) | > 30 µM (inactive) | > 30 µM (inactive) | > 30 µM (inactive) | > 30 µM (inactive)
9 | COCCNCc1ccc(-c2cc3nccc(Oc4ccc(NC(=S)NC(=O)Cc5ccc(F)cc5)cc4F)c3s2)nc1 [GLESATINIB] | > 30 µM (inactive) | > 30 µM (inactive) | > 30 µM (inactive) | > 30 µM (inactive) | > 30 µM (inactive) | > 30 µM (inactive) | > 30 µM (inactive) | > 30 µM (inactive) | > 30 µM (inactive) | > 30 µM (inactive)

Further lines, results first:

Row | Kd [1] | Kd [2] | Kd [3] | Kd (dCTP pyrophosphatase 1) | Kd [4] | Kd [5] | Kd [6] | Kd [7] | Kd [8] | Kd [9] | Compound
10 | > 30 µM (inactive) | > 30 µM (inactive) | > 30 µM (inactive) | > 30 µM (inactive) | > 30 µM (inactive) | > 30 µM (inactive) | > 30 µM (inactive) | > 30 µM (inactive) | > 30 µM (inactive) | 12.2 µM (active) | COc1cc(N2CCC(N3CCN(C)CC3)CC2)ccc1Nc1ncnc(Nc2ccccc2S(=O)(=O)C(C)C)n1 [ASP-3026]
11 | > 30 µM (inactive) | > 30 µM (inactive) | > 30 µM (inactive) | > 30 µM (inactive) | > 30 µM (inactive) | > 30 µM (inactive) | > 30 µM (inactive) | > 30 µM (inactive) | > 30 µM (inactive) | > 30 µM (inactive) | Cc1cc([C@@H](C)Nc2ccccc2C(=O)O)c2nc(N3CCOCC3)cc(=O)n2c1 [AZD-6482]
12 | > 30 µM (inactive) | > 30 µM (inactive) | > 30 µM (inactive) | > 30 µM (inactive) | > 30 µM (inactive) | > 30 µM (inactive) | > 30 µM (inactive) | > 30 µM (inactive) | > 30 µM (inactive) | > 30 µM (inactive) | COc1ccc(-c2ccc3c(N4CCOC[C@@H]4C)nc(N4CCOC[C@@H]4C)nc3n2)cc1CO [AZD-8055]
13 | > 30 µM (inactive) | > 30 µM (inactive) | > 30 µM (inactive) | > 30 µM (inactive) | > 30 µM (inactive) | > 30 µM (inactive) | > 30 µM (inactive) | > 30 µM (inactive) | > 30 µM (inactive) | > 30 µM (inactive) | C[C@@H](Nc1cc(F)cc(F)c1)c1cc(C(=O)N(C)C)cc2c(=O)cc(N3CCOCC3)oc12 [AZD-8186]
